Measurements as given in patent US10993999B2, “Materials and methods for producing improved lentiviral vector particles” (IMMUNE DESIGN CORP., priority 2012, dated 2021).
Where two headings read alike, the source gives them in different places.

Test system: PBMC-derived human dendritic cells
Format: cell-based

Cc1cn([C@H]2C[C@H](N=[N+]=[N-])[C@@H](CO)O2)c(=O)[nH]c1=O [AZT] was tested, and the “effect of reverse-transcriptase inhibitor on transduction” value (integration-deficient VSV-G-pseudotyped particles, 200 ng p24) was “inhibited”.

In the case of Cc1ccnc2c1NC(=O)c1cccnc1N2C1CC1 [Nevirapine], the “effect of reverse-transcriptase inhibitor on transduction” value (integration-competent VSV-G-pseudotyped particles, 20 ng p24) is reported as “inhibited”.

B1: Vpx: SIVmac Vpx protein (SEQ ID NO: 44), SAMHD1 inhibitor packaged into the lentivirus particles (protein)
chain: MSDPRERIPPGNSGEETIGEAFEWLNRTVEEINREAVNHLPRELIFQVWQRSWEYWHDEQGMSQSYVKYRYLCLMQKALFMHCKKGCRCLGEGHGAGGWRPGPPPPPPPGLA
modifications: Simian immunodeficiency virus
B1 was tested, and the “role of Vpx in transduction of human dendritic cells” value (integration-competent VSV-G-pseudotyped lentiviral vector particles) was “enhanced” and the “role of Vpx in transduction of human dendritic cells” value (integration-deficient VSV-G-pseudotyped lentiviral particles) was “required”.
